In experiment [1] the test system is reactive oxygen species (ROS) in rat PMCs. In words: Reactive oxygen species by flow cytometry (DCF). It is filed as cell-based. The following applies: D-glucose 50 mM and 83 mM, 8 hours, aliskiren 10-100 μM, FIG. 6. Here is the method:
The cells were incubated in D-glucose at 50 mM (A) and 83 mM (B) for 8 hours in the presence or absence of aliskiren (10-100 μM) and dichlorofluorescein (DCF) intensity was measured using flow cytometry, as described in Material and Methods. The data is expressed as mean±SEM, n=3. * p<0.05 compared to untreated cells (control). # p<0.05, compared to cells treated with D-glucose in the presence of carrier (0).
Rat peritoneal mesothelial cells were isolated by enzymatic digestion in accordance with protocols described in Hjelle J T, Golinska B T, Waters D C, et al. Perit Dial Int 1989; 9: 341-7. Briefly, female rats weighing 200-400 g of the Spragle-Dawley strain were sacrificed pursuant to Royal Decree 1201/2005, of 10 Oct., on protection of animals used for experimental and other scientific purposes. The abdominal cavity was quickly opened and the abdominal wall (peritoneum and smooth muscle) extracted under sterile conditions. […]
After washing with PBS, the cells were incubated with 5.6-chloromethyl-2,7-dichlorodihydrofluorescein diacetate (CM-H2DCFDA, Invitrogen) for 15 minutes at 37° C., following the standard protocol (Lee H B, 2004). […] The production of reactive oxygen species was calculated on the basis of evaluation of 10,000 cells per experimental condition.
(In general: A flow cytometer gives signals particle by particle.)

For a further experiment, the system named is p53. The experiment can be described thus: Real-time RT-PCR in PMCs from dialysed rats. To be noted: peritoneal cells from rats dialysed four weeks, aliskiren 0.1 or 1 mg/Kg, FIG. 14. It is filed as in vivo, rat. The procedure: The rats were exposed daily for four weeks to carrier (saline serum), 1.5% PDF, 2.3% PDF or 4.5% PDF supplemented by, 0.1 mg/Kg aliskiren or 1 mg/Kg aliskiren. The data is expressed as mean±SEM, n=6 rats per group. * p<0.05, compared to the group treated with carrier in the absence of aliskiren (carrier). # p<0.05, compared to their respective groups treated with PDFs in the absence of aliskiren. […]
At the end of the experimental period (four weeks), 30 ml of a commercial PDF with 2.3% glucose (Fresenius Medical Car, Bad Homburg, Germany) was administered intraperitoneally using a 22G needle. […] Their body weight was measured at the start and end of the experimental period. […]
The blood and dialysate samples were centrifuged and stored at −20° C. The concentrations of creatinine and glucose in the serum and dialysate were measured using enzymatic methods. The peritoneal transport of solutes was calculated, on one hand, as the glucose concentration in the dialysate 2 hours after the PET relative to the initial glucose concentration in the PDF (D2/D0 glucose) and, on the other, as the dialysate/plasma creatinine concentration ratio (D2/P2 creatinine) 2 h after the PET. […]
The RNA expression was evaluated by real-time RT-PCR in PMCs. […] RNA quality and concentration was evaluated by spectrophotometry (Infinite 200, Tecan, Salzburg, Austria) using 1 μl of the RNA sample. […]
A general note: In qPCR the cycle at which signal appears reflects the starting amount.

On to `COCCCOc1cc(C[C@@H](C[C@H](N)[C@@H](O)C[C@H](C(=O)NCC(C)(C)C(N)=O)C(C)C)C(C)C)ccc1OC` [aliskiren], for which the “production of reactive oxygen species” value in experiment [1] is reported as “prevented”. Also, the “RNAm expression of pro-apoptotic protein p53” value in the experiment on p53 is given as “reduced”.

The values are drawn from patent US20130065964A1, “PERITONEAL DIALYSIS SOLUTION” (UNIVERSIDAD DE CASTILLA LA MANCHA, priority 2010, published 2013).
